# Measured values published in the pKa sets of Baltruschat and Czodrowski (2020).
# Conditions: acidic group
row,pKa,SMILES
1,5.37,Cc1ccnc(NS(=O)(=O)c2ccc(Cl)cc2)n1
2,8.2,CCCCc1c(-c2ccccc2)n[nH]c1O
3,3,O=C(O)[C@@H]1O[C@H](Oc2ccc3ccc[nH+]c3c2)[C@@H](O)[C@H](O)[C@H]1O
4,1.83,O=C(O)c1ccc([N+](=O)[O-])cc1O
5,3.86,CCC(C(=O)O)C(=O)N1CCCCC1 (configuration not stated)
6,3.55,O=C(O)CNC(=O)CNS(=O)(=O)c1ccccc1
7,3.63,O=C(O)C1CCCc2ccccc2O1 (configuration not stated)
8,6.3,Cc1cc([C@@H]([NH3+])CO)c(O)c([C@@H]([NH3+])CO)c1
9,13.4,Cc1ccc(SC2CC(=O)N2)cc1 (configuration not stated)
10,8.11,CC[NH+](CC)Cc1cc(Cl)ccc1O
11,4.82,CC(=O)[C@H]1C[C@@H](CC(=O)O)C1(C)C
12,1.94,CC1SC(C)(C(=O)O)OC1=O (configuration not stated)
13,7.6,Cc1cc(Br)cc(Br)c1O
14,1.89,O=C(O)C#CCl
15,0.8,Cn1c(C(=O)O)cc(=O)n(C)c1=O
16,10.8,[O-]B(O)c1cccc(O)c1
17,6.6,O=c1cnn([C@H]2O[C@@H](CO)[C@H](O)[C@@H]2O)c(=O)[nH]1
18,6.18,CC(C)=CCC1C(=O)C(C(=O)CC(C)C)C(=O)C(CC=C(C)C)(CC=C(C)C)C1=O (configuration not stated)
19,1.97,O=C(O)C(=O)/C=C/c1ccccc1
20,8.17,C[NH+](C)CCNC(=O)/C=N/O
21,6.84,O=c1oc2cc(O)ccc2cc1-c1nc2ccccc2o1
22,3.11,Cc1ccc(C(=O)O)c(O)c1
23,-6.93,O=S(=O)(O)c1cccc(C(F)(F)F)c1
24,6.75,Cc1ccc(NN=C(C#N)C#N)cc1

row,pKa,SMILES
1,12.1,c1ccc(-c2nc3ccccc3[nH]2)nc1
2,8.45,CCN(CC)C(=S)NC(=O)c1ccccc1
3,7.26,NC(=O)[C@@H](N)Cc1ccccc1
4,12.1,CO/C([O-])=N/c1ncnc2nc[nH]c12
5,2.39,CC(C)([NH3+])C(=O)O
6,3.38,c1cc(-c2nn[nH]n2)cc(-c2nnn[nH]2)c1
7,4.03,O=C(O)c1ccsc1
8,3.26,NC1=[NH+][C@@H](CC(=O)O)C(=O)N1CCCC([NH3+])C(=O)[O-] (some centres not stated)
9,4.27,CC(C)c1cccc(C(=O)O)c1
10,5.46,Cn1nc(/N=N/O)nc1N1CCCCC1
11,8.68,C[NH+](C)CCCNC(=O)/C=N/O
12,6.64,CC1(C)SC(=O)NC1=O
13,-0.35,Nc1cc(N2CCOCC2)nc(N)n1
14,4.53,[NH3+]CCCCCCCCC(=O)O
15,4.54,[NH3+][C@H]1CONC1=O
16,5.8,CC1=CC(C)=Nc2ccc(C)cc2N1
17,11.2,O=C1CC(c2ccccc2)NC(=O)N1 (configuration not stated)
18,2.4,NC1=[NH+][C@H](C(=O)O)[C@@H]([C@H](O)C[NH3+])N1
19,9.51,S=C(Nc1ccc(Cl)c(Cl)c1)c1ccc(Cl)cc1
20,5.67,Oc1c(Cl)cc(Cl)cc1C[NH+]1CCOCC1
21,0.37,O=C1C(=O)C(c2ccccc2)C1=O
22,6.53,CC(C)c1cc(O)c(=O)ccc1Br
23,8.05,CNC(=O)CS
24,2.63,[NH3+]CCC(=O)N[C@@H](Cc1c[nH+]c[nH]1)C(=O)O

# Continued, molecule first:
row,SMILES,pKa
1,CCP(=O)(CC)CC=O,10.9
2,Oc1ccc2ccccc2c1,9.6
3,NC(=O)[C@H](N)[C@H](O)C(=O)O,2.31
4,Oc1n[nH]c(-c2ccccc2)c1Cc1ccccc1,7.7
5,Clc1nnn[nH]1,2.07
6,CC(C)CN[N+](=O)[O-],6.38
7,CP(C)(=O)O,3.08
8,C[n+]1ccn(CCC[n+]2ccc(/C=N/O)cc2)c1,8.05
9,CCOC(=O)c1c[nH+]c2cc([N+](=O)[O-])ccc2c1O,4.1
10,COc1ccc(O)cc1,10.2
11,Cc1cc(C#N)cc(C)c1O,8.27
12,OCCNC(=S)S,2.82
13,C=Cc1ccc(O)cc1,9.91
14,O=[N+]([O-])c1cccc(S(=O)(=O)Nc2ccccc2)c1,7.5
15,COc1cc[n+](O)cc1,2.05
16,Oc1cc(O)cc(O)c1,8.83
17,Oc1ccc2cnc3ccccc3c2c1,8.43

row,SMILES,pKa
1,Nc1c2ccccc2[nH+]c2cccc(O)c12,5.61
2,O=Nc1ccc(O)cc1,6.2
3,CNc1cc[nH+]c(S)n1,3.09
4,S=CNc1ccccc1Cl,10
5,CCC(=O)CC(C)=O,9.36
6,Cc1cc(Cc2cc(C)c(O)c(C)c2)c(O)c([N+](=O)[O-])c1,7.98
7,S=CNc1cccc(Cl)c1,10.8
8,[O-][n+]1ccc(NO)c2ccccc21,9.52
9,CNC(=O)Oc1ccc2c(c1)[C@@]1(C)CC[NH+](C)[C@H]1N2C,6.12
10,Nc1ccc(S(=O)(=O)Nc2ccn(-c3ccc([N+](=O)[O-])cc3)n2)cc1,6.94
11,O=[N+]([O-])c1ccc(S(=O)(=O)NCc2ccccc2)cc1,10.1
12,[NH3+]Cc1nnn[nH]1,2.62
13,CC(=O)c1ccccc1NN=C(C(=O)c1ccccc1)C(=O)c1ccccc1,9.2
14,OCc1cccc(O)c1,9.83
15,Cc1nsc(S)n1,5.18
16,C/C(=C\c1cc(C(C)(C)C)c(O)c(C(C)(C)C)c1)C(=O)[O-],11.5
17,Cc1ccc[n+](O)c1,1.08

# Same assay, conditions: basic group
row,pKa,SMILES
1,0.37,COc1cccc(Nc2ccccc2)c1
2,4.23,COc1cccc(N)c1
3,5.24,COc1ccc(N)cc1C[NH3+]
4,3.7,c1ccc2cc(NCCNc3ccc4ccccc4c3)ccc2c1

row,SMILES,pKa
1,C(CNCCc1nnn[n-]1)NCCc1nnn[n-]1,9.33
